Where a SMILES comes first, the peptide text is derived from it. Where no end group is shown, it is not given here. [ ]: non-standard residue; d: D form.
Legend:
[1] = system: T lymphocytes isolated from spleens of male CBA/J or NZB mice; experiment: T lymphocyte proliferation, 3H-thymidine incorporation; type: cell-based; parameters: key: A = Active; IA = Inactive; conditions: 48 hours culture, 200 μl
Experimental: The activity of the compounds of Example 2 and Example 4 was determined according to the following procedure:
T lymphocytes are isolated from spleens of male CBA/J or NZB mice. Cell homogenates are prepared in Hank's balanced salt solution (HBSS). After removal of larger particles and repeated washing of the cells in HBSS they are suspended in minimum essential medium (MEM) and passed through a glass wool column to remove macrophages. The cells are then incubated on a nylon wool column at 37° C., 95% air, 5% CO2, for 45 minutes. The non-adherant T lymphocytes are then eluted from the column, counted, and adjusted to 20×10^6 cells/ml. 50 μl of cells are cultured (37° C., 95% air, 5% CO2) with compound, for 48 hours before the addition of 0.5 μCi. of 3H-thymidine for the last 16 hours of culture. The total volume of the culture system is 200 μl. The cells are then harvested on a multiple automatic sample harvester (Mash II), the glass fiber filter disks placed in 10 ml. of xylene base scintillation fluid, and counted for 1 minute in a liquid scintillation counter. Results are reported as CPM±SE. Comparisons are made between counts obtained with control cultures and cultures containing compound and a determination made as to whether the compounds are active at the dosage tested.

[2] = system: autologous rosette-forming cells in the spleens of athymic mice; conditions: in vivo; cited from earlier work

| Molecule | Activity (T-cell proliferation, 3H-thymidine CPM vs control cultures) ([1]; 0.0015 μg/culture) | Activity (T-cell proliferation, 3H-thymidine CPM vs control cultures) ([1]; 0.006 μg/culture) | Activity (T-cell proliferation, 3H-thymidine CPM vs control cultures) ([1]; 0.025 μg/culture) | Activity (T-cell proliferation, 3H-thymidine CPM vs control cultures) ([1]; 0.05 μg/culture) | Activity (T-cell proliferation, 3H-thymidine CPM vs control cultures) ([1]; 0.1 μg/culture) | Activity (T-cell proliferation, 3H-thymidine CPM vs control cultures) ([1]; 0.2 μg/culture) | Numbers of autologous rosette-forming cells in spleens of athymic mice [2] |
| --- | --- | --- | --- | --- | --- | --- | --- |
| CC(=O)O.CC(=O)O.CC(=O)O.CC(C)[C@H](NC(=O)[C@H](CC(N)=O)NC(=O)[C@H](CCCCN)NC(=O)[C@@H](N)CCCNC(=N)N)C(=O)N[C@@H](Cc1ccc(O)cc1)C(N)=O [Arg--Lys--Asn--Val--Tyr--NH2, L-Arginyl-L-lysyl-L-asparaginyl-L-valyl-L-tyrosyl-amide triacetate salt] (H-RKNVY-NH2) | A | A | A | A | A | IA | – |
| CC(=O)O.CC(=O)O.CC(=O)O.CC(C)[C@H](NC(=O)[C@H](CC(N)=O)NC(=O)[C@H](CCCCN)NC(=O)[C@H](N)CCCNC(=N)N)C(=O)N[C@H](Cc1ccccc1)C(N)=O [D-Arg--Lys--Asn--Val--D-Phe--NH2, D-Arginyl-L-lysyl-L-asparaginyl-L-valyl-D-phenylalanyl amide tri acetate salt] (H-[dR]KNV[dF]-NH2) | A | A | A | – | A | – | – |
| RKDVY [arginyl-lysyl-aspartyl-valyl-tyrosine] | – | – | – | – | – | – | reducing the high numbers of autologous rosette-forming cells |
